Like-named read-outs stand apart in the source and are kept apart here.
Tests used:
[1] = biological target: T1, glutathione-S-transferase (GST) tagged LXRbeta LBD (ligand binding domain) (Homo sapiens, UniProt P55055); test: LanthaScreen TR-FRET Liver X Receptor Coactivator Assay, LXR beta; assay type: biochemical; conditions: for Emax: read-out: LXR beta actiivty at max dose (%); for EC50: potency (Inflection Point) of compound-induced co-activator recruitment, TR-FRET
T1 construct: purchased Invitrogen pv4658.pps
T1 sequence (P55055 222-460 limits assumed): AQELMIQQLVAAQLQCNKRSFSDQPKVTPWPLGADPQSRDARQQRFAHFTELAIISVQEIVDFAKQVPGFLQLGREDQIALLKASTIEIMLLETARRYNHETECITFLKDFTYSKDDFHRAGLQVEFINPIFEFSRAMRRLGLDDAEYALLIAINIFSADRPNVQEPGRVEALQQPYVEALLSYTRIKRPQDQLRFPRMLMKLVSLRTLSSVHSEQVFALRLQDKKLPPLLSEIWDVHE
Description: (§1) While running the LanthaScreen™ TR-FRET Liver X Receptor Coactivator Assay, LXR alpha-LBD or LXR beta-LBD was added to ligand test compounds followed by addition of a mixture of a fluorescein-labelled coactivator peptide and terbium-conjugated anti-GST antibody. After an incubation period at room temperature, TR-FRET (time-resolved fluorescence resonance energy transfer) was measured using a filter-based instrument capable of TR-FRET, e.g. PerkinElmer Envision.

[2] = biological target: T2, glutathione-S-transferase (GST) tagged LXRalpha LBD (ligand binding domain) (Homo sapiens, UniProt Q13133); test: LanthaScreen TR-FRET Liver X Receptor Coactivator Assay, LXR alpha; assay type: biochemical; conditions: for EC50 / LXR alpha IP (nM): potency (Inflection Point) of compound-induced co-activator recruitment, TR-FRET; for Emax: read-out: LXR alpha actiivty at max dose (%)
T2 construct: purchased Invitrogen pv4655
T2 sequence (Q13133 209-447 limits assumed): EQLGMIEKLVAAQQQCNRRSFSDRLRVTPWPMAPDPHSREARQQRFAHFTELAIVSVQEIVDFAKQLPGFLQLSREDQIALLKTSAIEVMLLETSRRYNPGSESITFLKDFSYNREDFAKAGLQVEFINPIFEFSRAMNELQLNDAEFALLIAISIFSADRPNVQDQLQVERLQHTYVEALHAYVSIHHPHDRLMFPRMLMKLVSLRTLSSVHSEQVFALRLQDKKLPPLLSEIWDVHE
Description: as §1

[3] = efficacy (Emax) in relation to reference dual agonist T0901317

Row | SMILES | Emax [1, 3] | EC50 ([1]; read-out: LXR beta IP) | Emax [2, 3] | EC50 ([2]; read-out: LXR alpha IP) | LXR alpha IP (nM) [2] | LXR alpha actiivty at max dose (%) [2, 3] | LXR beta actiivty at max dose (%) [1, 3] | EC50 ([2]; LXR alpha IP (nM)) | Emax [2] | EC50 ([1]; LXR beta IP (nM)) | Emax [1]
1 | CNC(=O)c1ccc(NCCCCC2CCN(C(=O)C(O)(c3cccc(OC)c3)C(F)(F)F)CC2)cc1Cl (single isomer, unassigned) [Example 1-1, (R or S)-2-chloro-N-methyl-4-(4-(1-(3,3,3-trifluoro-2-hydroxy-2-(3-methoxyphenyl)propanoyl)piperidin-4-yl)butylamino)benzamide] | 68% | 8 nM | – | – | – | – | – | 577 nM | 17% | – | –
2 | NC(=O)c1ccc(NCCCCC2CCN(C(=O)C(O)(c3ccccc3)C(F)(F)F)CC2)cc1Cl (single isomer, unassigned) [Example 1-2, (R or S)-2-chloro-4-(4-(1-(3,3,3-trifluoro-2-hydroxy-2-phenylpropanoyl)piperidin-4-yl)butylamino)benzamide] | 59% | 15 nM | 43% | 266 nM | – | – | – | – | – | – | –
3 | CNC(=O)c1ccc(NCCCCC2CCN(C(=O)C(O)(c3cccc(OC)c3)C(F)(F)F)CC2)cc1F (single isomer, unassigned) [Example 1-6, (R or S)-2-fluoro-N-methyl-4-(4-(1-(3,3,3-trifluoro-2-hydroxy-2-(3-methoxyphenyl)propanoyl)piperidin-4-yl)butylamino)benzamide] | 63% | 102 nM | 16% | 3300 nM | – | – | – | – | – | – | –
4 | CNC(=O)c1ccc(NCCCCC2CCN(C(=O)C(O)(c3cccc(OC4CC4)c3)C(F)(F)F)CC2)cc1Cl (single isomer, unassigned) [Example 1-7, (S or R)-2-chloro-4-(4-(1-(2-(3-cyclopropoxyphenyl)-3,3,3-trifluoro-2-hydroxypropanoyl)piperidin-4-yl)butylamino)-N-methylbenzamide] | 56% | 14 nM | 19% | 3160 nM | – | – | – | – | – | – | –
5 | CNC(=O)c1ccc(NCCCCC2CCN(C(=O)C(O)(c3cccc(OC(F)(F)F)c3)C(F)(F)F)CC2)cc1Cl (single isomer, unassigned) [Example 1-9, (S or R)-2-chloro-N-methyl-4-(4-(1-(3,3,3-trifluoro-2-hydroxy-2-(3-(trifluoromethoxy)phenyl)propanoyl)piperidin-4-yl)butylamino)benzamide] | 62% | 17 nM | 13% | – | No IP | – | – | – | – | – | –
6 | CNC(=O)c1ccc(NCCCCC2CCN(C(=O)C(O)(c3cccc(OC(C)C)c3)C(F)(F)F)CC2)cc1Cl (single isomer, unassigned) [Example 1-10, (S or R)-2-chloro-N-methyl-4-(4-(1-(3,3,3-trifluoro-2-hydroxy-2-(3-isopropoxyphenyl)propanoyl)piperidin-4-yl)butylamino)benzamide] | 68% | 14 nM | 19% | 2090 nM | – | – | – | – | – | – | –
7 | CN(C)C(=O)c1ccc(N(C)CCCC2CCN(C(=O)C(O)(c3ccccc3)C(F)(F)F)CC2)cc1Cl (single isomer, unassigned) [Example 3-1, (S or R)-2-chloro-N,N-dimethyl-4-(methyl(3-(1-(3,3,3-trifluoro-2-hydroxy-2-phenylpropanoyl)piperidin-4-yl)propyl)amino)benzamide] | – | – | 16% | 1150 nM | – | – | – | – | – | 47 nM | 109%
8 | CC(CCCC1CCN(C(=O)[C@](O)(c2ccccc2)C(F)(F)F)CC1)Nc1ccc(C(=O)N(C)C)c(Cl)c1 (single isomer, unassigned) [Example 4-3, 2-chloro-N,N-dimethyl-4-((S or R)-5-(1-((R or S)-3,3,3-trifluoro-2-hydroxy-2-phenylpropanoyl)piperidin-4-yl)pentan-2-ylamino)benzamide] | 79% | 15 nM | – | 653 nM | – | 35% | – | – | – | – | –
9 | CC(CCCC1CCN(C(=O)[C@](O)(c2ccccc2)C(F)(F)F)CC1)Nc1ccc(C(=O)N(C)C)c(Cl)c1 (single isomer, unassigned) [Example 4-4, 2-chloro-N,N-dimethyl-4-((R or S)-5-(1-((R or S)-3,3,3-trifluoro-2-hydroxy-2-phenylpropanoyl)piperidin-4-yl)pentan-2-ylamino)benzamide] | – | 325 nM | – | – | No IP | 7% | 59% | – | – | – | –
10 | COc1cccc([C@@](O)(C(=O)N2CCC(CCCC(C)Nc3ccc(C(=O)N(C)C)c(Cl)c3)CC2)C(F)(F)F)c1 (single isomer, unassigned) [Example 4-5, 2-chloro-N,N-dimethyl-4-((R or S)-5-(1-((R or S)-3,3,3-trifluoro-2-hydroxy-2-(3-methoxyphenyl)propanoyl)piperidin-4-yl)pentan-2-ylamino)benzamide] | 17% | 3770 nM | 0% | – | No IP | – | – | – | – | – | –
11 | CC(CC1CC12CCN(C(=O)C1(c3ccccc3)CCC1)CC2)Nc1ccc(C(=O)N(C)C)c(Cl)c1 (single isomer, unassigned) [Example 5-1, 2-chloro-N,N-dimethyl-4-(1-((S or R)-6-(1-phenylcyclobutanecarbonyl)-6-azaspiro[2.5]octan-1-yl)propan-2-ylamino)benzamide] | – | – | 56% | 220 nM | – | – | – | – | – | 5 nM | 41%

Now from value to molecule, other results behind:

Row | Emax [1, 3] | EC50 ([1]; read-out: LXR beta IP) | Emax [2, 3] | EC50 ([2]; read-out: LXR alpha IP) | LXR alpha IP (nM) [2] | LXR alpha actiivty at max dose (%) [2, 3] | LXR beta actiivty at max dose (%) [1, 3] | SMILES | EC50 ([2]; LXR alpha IP (nM)) | Emax [2] | EC50 ([1]; LXR beta IP (nM)) | Emax [1]
12 | 75% | 9 nM | 38% | 481 nM | – | – | – | CNC(=O)c1ccc(NCCCCC2CCN(C(=O)C(O)(c3ccccc3)C(F)(F)F)CC2)cc1Cl (single isomer, unassigned) [Example 1-3, (R or S)-2-chloro-N-methyl-4-(4-(1-(3,3,3-trifluoro-2-hydroxy-2-phenylpropanoyl)piperidin-4-yl)butylamino)benzamide] | – | – | – | –
13 | 72% | 8 nM | 32% | 239 nM | – | – | – | CNC(=O)c1ccc(NCCCCC2CCN(C(=O)C(O)(c3cccc(Cl)c3)C(F)(F)F)CC2)cc1Cl (single isomer, unassigned) [Example 1-5, (R or S)-2-chloro-4-(4-(1-(2-(3-chlorophenyl)-3,3,3-trifluoro-2-hydroxypropanoyl)piperidin-4-yl)butylamino)-N-methylbenzamide] | – | – | – | –
14 | 52% | 4 nM | 12% | – | No IP | – | – | CCc1cccc(C(O)(C(=O)N2CCC(CCCCNc3ccc(C(=O)NC)c(Cl)c3)CC2)C(F)(F)F)c1 (single isomer, unassigned) [Example 1-8, (S or R)-2-chloro-4-(4-(1-(2-(3-ethylphenyl)-3,3,3-trifluoro-2-hydroxypropanoyl)piperidin-4-yl)butylamino)-N-methylbenzamide] | – | – | – | –
15 | 29% | 3 nM | 0% | – | No IP | – | – | CNC(=O)c1ccc(NCCCCC2CCN(C(=O)C(O)(c3cc(Cl)cc(Cl)c3)C(F)(F)F)CC2)cc1Cl (single isomer, unassigned) [Example 1-11, (R or S)-2-chloro-4-(4-(1-(2-(3,5-dichlorophenyl)-3,3,3-trifluoro-2-hydroxypropanoyl)piperidin-4-yl)butylamino)-N-methylbenzamide] | – | – | – | –
16 | 72% | 3 nM | 43% | 147 nM | – | – | – | CN(C)C(=O)c1ccc(NCCCCC2CCN(C(=O)C(O)(c3ccccc3)C(F)(F)F)CC2)cc1Cl (single isomer, unassigned) [Example 1-15, (S or R)-2-chloro-N,N-dimethyl-4-(4-(1-(3,3,3-trifluoro-2-hydroxy-2-phenylpropanoyl)piperidin-4-yl)butylamino)benzamide] | – | – | – | –
17 | 71% | 13 nM | 22% | 734 nM | – | – | – | COc1cccc([C@@](O)(C(=O)N2CCC(CCC[C@H](C)Nc3ccc(C(=O)N(C)C)c(Cl)c3)CC2)C(F)(F)F)c1 (single isomer, unassigned) [Example 4-1, 2-chloro-N,N-dimethyl-4-((S or R)-5-(1-((R or S)-3,3,3-trifluoro-2-hydroxy-2-(3-methoxyphenyl)propanoyl)piperidin-4-yl)pentan-2-ylamino)benzamide] | – | – | – | –
18 | 84% | 7 nM | 37% | 382 nM | – | – | – | CC(CCCC1CCN(C(=O)[C@](O)(c2cccc(Cl)c2)C(F)(F)F)CC1)Nc1ccc(C(=O)N(C)C)c(Cl)c1 (single isomer, unassigned) [Example 4-2, 2-chloro-4-((S or R)-5-(1-((R or S)-2-(3-chlorophenyl)-3,3,3-trifluoro-2-hydroxypropanoyl)piperidin-4-yl)pentan-2-ylamino)-N,N-dimethylbenzamide] | – | – | – | –

— patent publication US10894775B2, “Piperidine derivatives as liver X receptor beta agonists, compositions, and their use” (Merck Sharp & Dohme Corp., priority 2016, dated 2021)
